In US10842878B2, “Degradation of Bruton's tyrosine kinase (BTK) by conjugation of BTK inhibitors with E3 ligase ligand and methods of use” (Dana-Farber Cancer Institute, Inc., priority 2016, dated 2020):

Biological target: T1, BTK (Homo sapiens, UniProt Q06187)
T1 construct: protein lysate harvest and Western blotting analysis of BTK, Aurora A, and α-tubulin levels; endogenous in cells; host or cells: MOLM14 cells
Experiment: Cell assay and Western blotting analysis of BTK levels in MOLM14 cells
Format: cell-based
Details: MOLM14 cells treated with 40 nM, 200 nM, 1 μM for 4 or 12 hours (FIG. 1: 4 hours); DMSO control; Aurora A and α-tubulin also blotted
Description: MOLM14 cells were treated with DMSO or with 40 nM, 200 nM, 1 μM of a BTK bifunctional inhibitor compound of the disclosure for 4 or 12 hours, followed by protein lysate harvest and Western blotting analysis of BTK, Aurora A, and α-tubulin levels.
Cells are lysed using RIPA buffer supplemented with protease inhibitor cocktail (Roche) and phosSTOP phosphatase inhibitor cocktail (Roche) on ice for 15 minutes. The lysates are spun at 20,000×g for 15 minutes on 4° C. and protein concentration is determined using BCA assay (Pierce). The following primary antibodies are used in this study: BTK, GADPH, tubulin and Aurora A kinase (all from Cell Signaling Technology). Blots are imaged using fluorescence-labeled secondary antibodies (LI-COR) on the OdysseyCLxImager (LI-COR). Quantification of band intensities is performed using OdysseyCLx software (LI-COR).

T1 sequence (Q06187 whole entry): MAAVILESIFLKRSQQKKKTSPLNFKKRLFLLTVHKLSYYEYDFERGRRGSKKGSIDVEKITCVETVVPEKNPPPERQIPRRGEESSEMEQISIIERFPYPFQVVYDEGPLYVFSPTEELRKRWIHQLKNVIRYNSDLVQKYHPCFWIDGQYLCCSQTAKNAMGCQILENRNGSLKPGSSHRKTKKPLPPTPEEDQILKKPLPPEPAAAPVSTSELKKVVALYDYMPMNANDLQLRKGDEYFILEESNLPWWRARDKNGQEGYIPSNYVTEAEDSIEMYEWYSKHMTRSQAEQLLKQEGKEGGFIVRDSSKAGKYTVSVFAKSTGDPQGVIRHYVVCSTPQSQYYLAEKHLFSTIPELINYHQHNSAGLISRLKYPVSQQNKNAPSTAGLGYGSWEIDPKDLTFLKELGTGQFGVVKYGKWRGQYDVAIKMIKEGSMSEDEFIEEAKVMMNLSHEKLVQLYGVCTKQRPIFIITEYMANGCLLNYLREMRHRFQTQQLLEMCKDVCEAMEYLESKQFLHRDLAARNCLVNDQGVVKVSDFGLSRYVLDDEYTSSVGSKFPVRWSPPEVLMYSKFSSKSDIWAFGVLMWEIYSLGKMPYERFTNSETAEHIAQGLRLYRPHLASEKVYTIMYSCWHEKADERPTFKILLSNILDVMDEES

BTK degradation (Western blotting analysis of BTK levels): showed BTK degradation
Compound: Cc1c(NC(=O)c2ccc(C(C)(C)C)cc2)cccc1-c1cn(C)c(=O)c(Nc2ccc(C(=O)N3CCN(CCOCCOCCNC(=O)CNc4cccc5c4C(=O)N(C4CCC(=O)NC4=O)C5=O)CC3)cc2)n1 (stereo not shown) [Compound I-5, 4-(tert-butyl)-N-(3-(6-((4-(4-(2-(2-(2-(2-((2-(2,6-dioxopiperidin-3-yl)-1,3-dioxoisoindolin-4-yl)amino)acetamido)ethoxy)ethoxy)ethyl)piperazine-1-carbonyl)phenyl)amino)-4-methyl-5-oxo-4,5-dihydropyrazin-2-yl)-2-methylphenyl)benzamide]
